Source: ChEMBL document CHEMBL2040781, “Design, synthesis, and biological evaluation of chromone-based p38 MAP kinase inhibitors” (J Med Chem, 2011)
pIC50: −log10 of the molar value.

Target: Mitogen-activated protein kinase 14 (Homo sapiens, UniProt Q16539)
Experiment: Inhibition of p38alpha MAPK after 40 mins by scintillation counting

Chain of Mitogen-activated protein kinase 14 (Q16539 whole entry): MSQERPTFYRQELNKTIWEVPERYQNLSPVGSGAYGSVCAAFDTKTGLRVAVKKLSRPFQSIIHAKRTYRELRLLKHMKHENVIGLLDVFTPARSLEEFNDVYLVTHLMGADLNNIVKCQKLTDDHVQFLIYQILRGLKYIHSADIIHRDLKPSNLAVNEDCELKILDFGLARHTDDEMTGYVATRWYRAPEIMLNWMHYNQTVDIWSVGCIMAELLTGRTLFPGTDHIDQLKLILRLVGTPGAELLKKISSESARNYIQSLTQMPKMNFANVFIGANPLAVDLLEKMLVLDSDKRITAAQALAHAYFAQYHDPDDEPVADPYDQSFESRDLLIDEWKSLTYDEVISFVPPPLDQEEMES

pIC50	Compound
5.86	O=c1c(-c2ccc(F)cc2)c(-c2ccnc(Cl)c2)oc2ccccc12
6.12	CN(C)CCCNc1cc(-c2oc3ccccc3c(=O)c2-c2ccc(F)cc2)ccn1
7.35	O=c1c(-c2ccc(F)cc2)c(-c2ccnc(NC3CCOCC3)c2)oc2ccccc12
7.46	O=c1c(-c2ccc(F)cc2)c(-c2ccnc(NCc3ccccc3)c2)oc2ccccc12
6.09	O=c1c(-c2ccc(F)cc2)c(-c2ccncc2)oc2ccccc12
7.68	CCCCNc1cc(-c2oc3ccccc3c(=O)c2-c2ccc(F)cc2)ccn1
7.41	COCCCNc1cc(-c2oc3ccccc3c(=O)c2-c2ccc(F)cc2)ccn1
